This note sets out measurements from a melting point compilation (Tetko et al.).

What is called melting point is the temperature, or range, at which the solid turns liquid.

`CC(C)(C)OC(=O)N1CCOCC1C(=N)NO` (stereo not drawn) registered a melting point of 154 to 156 °C. Compound `CS(=O)(=O)Nc1ccc(N)cc1Br` displayed a melting point of 146 to 148 °C. Take `CCC(CC)(C(=O)O)c1ccc(Cl)c(Cl)c1`: the melting point lay within 94 to 96 °C. With `Cn1c(O)c([N+](=O)[O-])c(=O)c2ccccc21`, the melting point fell in the range of 159 to 161 °C. Turning to `NC(=S)CCN1C(=O)c2ccccc2C1=O`, the melting point lay in the range of 186 to 188 °C. As to `NS(=O)(=O)c1ccc(N2CCOCC2)c(C(=O)O)c1`, the melting point fell in the range of 277 to 279 °C. The value for `O=C(O)c1nccnc1Sc1ccccc1` was 154 to 156 °C; that for `Cc1[nH][nH]c(=O)c1CCO` was 183 to 185 °C. As to `O=C(CN1CCNCC1)N1CCCCC1`, the melting point fell in the range of 83 to 85 °C. With `O=C1C=CC(=O)N1c1ccccc1Sc1ccc(Cl)cc1`, the melting point is 54 to 56 °C.

On to `CC(O)C(C)c1ccc2ccccc2n1` (stereo not drawn), for which the melting point lay in the range of 69 to 71 °C. On to `CCc1ccc(-c2ccc(C=O)o2)cc1`, for which the melting point fell in the range of 45 to 47 °C. Compound `Cc1cccc(C(=O)N2CCSCC2)c1N` yielded a melting point of 113 to 115 °C. `N#CCCNc1ccc(F)cc1`: the melting point lay in the range of 38 to 42 °C. The compound `NS(=O)(=O)N1CCOc2ccccc21` registered a melting point of 135 to 137 °C. The value for `CNS(=O)(=O)CC1CCCN1` (stereo not drawn) was 91 to 93 °C; that for `NC(=S)c1cccc([N+](=O)[O-])c1` was 132 to 134 °C. The compound `O=C1CC(c2cccnc2)CN1` (stereo not drawn) displayed a melting point of 69 to 71 °C. Then `CCNc1ccc(S(=O)(=O)N(C)C)cc1N`, with 161 to 163 °C; and `O=C(c1cnc(Cl)c(Cl)c1)N1CCOCC1`, with 78 to 80 °C; and `O=S(=O)(c1ccc(Cl)c(C(F)(F)F)c1)N1CCNCC1`, with 292 to 295 °C. For `CNS(=O)(=O)c1cccc(F)c1`, the melting point fell in the range of 58 to 60 °C. For `CC(C)(C)OC(=O)Oc1ccc(N)cc1`, the melting point fell in the range of 112 to 114 °C. The value for `Cc1[nH]ncc1Cl` was 64 to 66 °C; that for `Cc1ccnc(Br)c1[N+](=O)[O-]` was 54 to 56 °C.

Turning to `COc1ccccc1C(N)=NO`, the melting point fell in the range of 105 to 107 °C. The value for `CS(=O)(=O)c1cccc(C(N)c2ccccc2)c1` (stereo not drawn) was 48 to 50 °C.

`Cn1nnnc1SCC(=O)O` gave a melting point of 108 to 110 °C.

With `O=S(=O)(CCCl)c1cc(Cl)ccc1Cl`, the melting point fell in the range of 80 to 82 °C. The compound `CC(C)(C)c1ccc(CC(C#N)C(N)=O)cc1` (stereo not drawn) came in with a melting point of 143 to 145 °C. `O=C(O)c1cc(/C=C/c2cccc(Br)c2)nc2ccc(Br)cc12` registered a melting point of 307 to 309 °C. In the case of `Cc1ccc(S(=O)(=O)NC(CCl)c2ccccc2)cc1` (stereo not drawn), the melting point lay in the range of 174 to 176 °C. As for `Cc1nc(N(C)C)sc1C(=O)O`, the melting point was 99 to 101 °C. `Cc1nc(C(=O)O)nn1-c1ccccc1C(C)C` yielded a melting point of 175 to 177 °C.

`Cc1ccc(Oc2ccc(N)cc2)nc1`: the melting point is 90 to 92 °C. `CC(N)c1ccccc1NS(=O)(=O)c1cccs1` (stereo not drawn) displayed a melting point of 167 to 169 °C.

In turn, `O=C(O)C1(c2cccc(Cl)c2)CC1` displayed a melting point of 135 to 137 °C. Consider `COc1ccc2c(c1)NCCCC2`, for which the melting point lay within 46 to 48 °C.

In turn, `Cc1ccc(Cl)c2ccc(=O)[nH]c12` had a melting point of 254 to 256 °C. Then `Nc1cccc(S(=O)(=O)Nc2cccc(Cl)c2)c1`, with 107 to 109 °C; and `COCCS(=O)(=O)c1ccc(Cl)c(C(=O)O)c1Cl`, with 129 to 131 °C. Regarding `N#CCn1c(C(=O)O)cc2ccccc21`, the melting point lay within 192 to 194 °C. Then `CCOC(=O)c1c(N)sc(C(=O)OCCOC)c1C`, with 118 to 120 °C; and `Cc1nnc(-c2ccc(N)cc2)o1`, with 195 to 197 °C.

Take `Nn1cnc2sccc2c1=O`: the melting point lay within 214 to 216 °C.

For the compound `NC(CN1CCC(O)CC1)=NO`, the melting point lay within 182 to 184 °C. In turn, `CCc1cc(C#N)c(N)s1` returned a melting point of 61 to 63 °C. Consider `CCc1nc(N)[nH]c(=S)n1`, for which the melting point is 239 to 241 °C. In turn, `Ic1cnc2ccccn12` showed a melting point of 166 to 168 °C. `O=C(O)c1cn(Cc2ccccc2)nn1` registered a melting point of 176 to 178 °C. `CC(C)c1nc(N)no1` registered a melting point of 39 to 41 °C. The value for `Cc1ccc(-c2nnc(-c3ccc(C(=O)O)cc3)o2)cc1` was 250 to 252 °C; that for `CC(C)(C)c1ccc(C(=O)N2CSCC2C(=O)O)cc1` (stereo not drawn) was 180 to 182 °C; that for `COc1cccc(-c2nnn[nH]2)c1` was 181 to 183 °C. Compound `CCC(=O)Nc1ccc(Cl)c(N)c1` showed a melting point of 105 to 107 °C. `N#CCc1ccc([N+](=O)[O-])cc1Br` came in with a melting point of 66 to 68 °C.

For `Cc1ccc(S(=O)(=O)N(C)CC(=O)O)cc1`, the melting point is 228 to 230 °C. The value for `COc1ccc(-c2n[nH]c(S)nc2=O)cc1` was 284 to 286 °C; that for `O=C(CCl)NCc1cccc(NC(=O)C2CC2)c1` was 175 to 177 °C. Compound `O=C(O)c1ccc(-n2cncn2)nc1` gave a melting point of 341 to 343 °C.

Regarding `Nc1ccc(S(=O)(=O)CCO)cc1`, the melting point was in the range of 106 to 108 °C.

In turn, `O=C(O)CCc1nc2sc3c(c2c(=O)[nH]1)CCC3` had a melting point of 220 to 222 °C.

With `COc1cc(OC)cc(N2CCC(N)C2=O)c1` (stereo not drawn), the melting point was in the range of 88 to 90 °C.

With `COC(C)C(N)=NO` (stereo not drawn), the melting point lay within 118 to 120 °C.

For `COc1ccc(Oc2ccc(CO)cc2)cc1`, the melting point was 100 to 102 °C. As for `O=C(CCl)Nc1ccc2[nH]c(=O)[nH]c2c1`, the melting point was 230 to 232 °C.

`Nc1ccc(CN2C(=O)CSC2=O)cc1` returned a melting point of 134 to 136 °C.

In the case of `Cc1c(Br)cc(S(C)(=O)=O)cc1C(=O)O`, the melting point lay in the range of 134 to 136 °C.

`O=C1CCCC(C(=O)O)N1` (stereo not drawn) gave a melting point of 94 to 96 °C. The value for `O=C(NCCCl)OCC(F)(F)F` was 31 to 33 °C; that for `Cc1cc(Cl)c(CCl)c(Cl)n1` was 45 to 47 °C. For the compound `CC(C)Cc1nc(C(=O)O)cs1`, the melting point lay in the range of 104 to 106 °C. Then `COCc1cccc2sc(N)nc12`, with 139 to 141 °C; and `COc1ccc(-c2csc(CC#N)n2)cc1OC`, with 101 to 103 °C. Compound `CSc1nc(N)cc(O)n1` gave a melting point of 279 to 281 °C. For `COc1ccc(NC(=O)c2c(N)sc3c2CCCC3)cc1`, the melting point lay within 158 to 160 °C.

`Cc1nnc2n1CC(CO)CC2` (stereo not drawn) gave a melting point of 158 to 160 °C. The compound `OC(c1ccncc1)c1ccc(F)cc1` (stereo not drawn) registered a melting point of 136 to 138 °C. Regarding `O=C(c1ccccc1)c1ccc(Cl)cc1O`, the melting point was in the range of 75 to 77 °C. Then `Cc1nn(-c2ccc(F)cc2F)c(C)c1C=O`, with 129 to 131 °C; and `CC(SCC(=O)Nc1ccc(Br)cc1)C(=O)O` (stereo not drawn), with 139 to 141 °C; and `O=C(O)CCCc1ccccc1Br`, with 87 to 89 °C. Then `CC(C)C(Br)C(=O)NC1CCCC1` (stereo not drawn), with 99 to 101 °C; and `O=C(O)c1nn(-c2ccc(Cl)cc2)c2c1CCCCC2`, with 212 to 214 °C. The value for `O=C1CS/C(=C/C(=O)c2cccc(Cl)c2)N1` was 207 to 209 °C. `C=CCNc1nc2c(s1)CCCC2` yielded a melting point of 77 to 79 °C.

The compound `Cc1ccc(S(=O)(=O)Nc2cc(Cl)ccc2C(=O)O)cc1` showed a melting point of 205 to 207 °C. For `CC(C)(C)CC(O)C(=O)O` (stereo not drawn), the melting point lay within 71 to 73 °C.
